{
  "source": "patent US4322308A",
  "about": "“Detergent product containing deodorant compositions” (priority 1977, dated 1982)",
  "key": {"[1]": {"tested_on": "body malodour (axillae of human subjects)", "test": "Odour Reduction Value Test (soap bars applied to the axillae of a human panel)", "type": "in vivo", "conditions": "for Odour Reduction Value: 0 to 5 scale, 5 hours after washing", "description": "As has been stated, the ability of toilet soap containing both a deodorant perfume and a deodorant other than a deodorant perfume to reduce body malodour was assessed by an odour reduction value test, somewhat similar to that described by Whitehouse and Carter in Proc. Scientific Section of the Toilet Goods Association, 48, 31 (1967) for the measurement of body odour inhibition by germicides in toilet soap.\nThe test described in that publication was modified in three ways: firstly a 0 to 5 instead of a 0 to 10 grading scale was employed, secondly grading of odour intensity was performed 5 hours after treatment instead of 24 hours, and thirdly, the concentration of deodorant perfume incorporated in the test detergent product was 1.5% by weight of the product.\nIn this test, the odour reduction value of a standard soap bar containing a deodorant perfume at a standard concentration is measured by assessing its effectiveness in reducing body malodour when the standard soap bar is used to wash the axillae (armpits) of a panel of human subjects.\nStandard soap bars are prepared as follows, all amounts given being by weight.\nA soap base there is used a neutral wet sodium soap containing 63% of total fatty matter of which 82% is tallow fatty acid and 18% is coconut oil fatty acid. To a homogeneous mixture of 9000 parts of this soap base and 340 parts of free coconut oil fatty acid at 80° C. are added with mixing, 9.4 parts of a 20% aqueous solution of tetrasodium ethylenediamine tetraacetate, 2.2 parts of a 60% aqueous solution of 1-hydroxyethane-1,1-diphosphonic acid and 7.2 parts of butylated hydroxy toluene (BHT) antioxidant dissolved in a little methylated spirits and the temperature of the mass is raised to 140° C. under superatmospheric pressure. The mass is then sprayed at about 30 mm of mercury, to produce a dried soap composition which is collected and extruded at 30° C. as noodles of about 12% moisture content.\n9,770 parts of the soap noodles thus obtained are mixed at ambient temperature with 150 parts of the deodorant perfume to be tested, together with 30 parts of a titanium dioxide opacifier and 50 parts of a colourant suspension. The resulting mixture is milled and stamped into tablets. The deodorant perfume to be tested is therefore present at the standard level of 1.5%.\nIn other respects, the control bar should only contain those additives conventionally present in personal washing products and for the purpose in the amount conventionally used in the art.\nA team of 2 to 4 Caucasian female assessors of age within the range of from 20 to 40 years is selected for olfactory evaluation on the basis that each is able to rank correctly the odour levels of the series of aqueous isovaleric acid solutions listed in Table 2 below, and each is able to detect the reduction in body odour following application to the axillae of human subjects of soap containing 2% germicides, according to the procedure described by Whitehouse and Carter.\nA panel of 30 to 50 human subjects for use in the test is assembled from Caucasian male subjects of age within the range of from 20 to 55 years.\nFor two weeks before the start of a test, the panel subjects are assigned a non-deodorant soap bar for exclusive use of bathing and are denied the use of any type of deodorant or antiperspirant. At the end of this period, the subjects are randomly divided into two groups. The control soap bars are then applied to the left axillae of the first group and the right axillae of the second, and the test soap bars are applied to the right axillae of the first group and the left axillae of the second.\nThe soap bars are applied by a technician using a standard technique in which a wet flannel is soaped with the soap bar for 15 seconds, the axilla is washed with the soaped flannel for 30 seconds, then wiped with a water rinsed flannel and dried with a clean towel."}, "[2]": {"target": "T1, lipoxidase (E.C. 13.1.13) (Glycine max, UniProt P08170)", "T1 sequence (P08170 1-839)": "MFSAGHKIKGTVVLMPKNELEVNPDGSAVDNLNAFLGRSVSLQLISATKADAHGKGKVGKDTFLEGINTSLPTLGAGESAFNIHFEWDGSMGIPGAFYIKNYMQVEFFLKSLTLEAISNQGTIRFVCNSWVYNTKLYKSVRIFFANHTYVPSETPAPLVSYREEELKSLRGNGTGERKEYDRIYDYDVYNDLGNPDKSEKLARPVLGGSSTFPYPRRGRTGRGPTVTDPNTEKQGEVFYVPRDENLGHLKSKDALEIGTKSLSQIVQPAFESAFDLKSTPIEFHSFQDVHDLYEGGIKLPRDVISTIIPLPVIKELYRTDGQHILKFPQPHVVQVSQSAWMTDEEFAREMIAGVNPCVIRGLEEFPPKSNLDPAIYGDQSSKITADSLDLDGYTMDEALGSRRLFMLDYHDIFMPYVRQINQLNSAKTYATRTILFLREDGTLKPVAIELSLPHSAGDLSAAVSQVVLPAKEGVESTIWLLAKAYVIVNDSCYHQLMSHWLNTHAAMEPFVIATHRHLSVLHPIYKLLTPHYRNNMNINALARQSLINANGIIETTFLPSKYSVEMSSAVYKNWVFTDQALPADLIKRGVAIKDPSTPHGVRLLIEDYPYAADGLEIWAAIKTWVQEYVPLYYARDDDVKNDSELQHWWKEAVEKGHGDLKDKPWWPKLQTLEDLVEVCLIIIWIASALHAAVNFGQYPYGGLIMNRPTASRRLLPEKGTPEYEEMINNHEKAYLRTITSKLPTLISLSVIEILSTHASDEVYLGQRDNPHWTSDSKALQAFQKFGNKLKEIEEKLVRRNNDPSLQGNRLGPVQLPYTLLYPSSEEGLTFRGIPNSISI", "test": "The Lipoxidase Test (inhibition of linoleic acid oxidation)", "type": "biochemical", "conditions": "test substrate made with 0.5% by weight solution of the material in ethanol, borate buffer pH 9.0, OD at 234 nm"}, "[3]": {"test": "The Morpholine Test (depression of partial vapour pressure of morpholine)", "conditions": "morpholine 0.25 g + perfume material 1 g, 37° C., headspace GC"}},
  "data": [
    {"molecule": "O=C(Nc1ccc(Cl)cc1)Nc1ccc(Cl)c(Cl)c1", "note": "[3,3,4'-trichloro-carbanilide, 3,4,4'-trichlorocarbanilide]", "values": [
      {"measurement": "Odour Reduction Value", "setting": "[1]; 0.16 wt % germicide in soap bar vs control soap bar without germicide", "value": 0.10},
      {"measurement": "Odour Reduction Value", "setting": "[1]; 0.25 wt % germicide in soap bar vs control soap bar without germicide", "value": 0.14},
      {"measurement": "Odour Reduction Value", "setting": "[1]; 0.5 wt % germicide in soap bar vs control soap bar without germicide", "value": 0.22},
      {"measurement": "Odour Reduction Value", "setting": "[1]; 0.75 wt % germicide in soap bar vs control soap bar without germicide", "value": 0.27},
      {"measurement": "Odour Reduction Value", "setting": "[1]; 1.0 wt % germicide in soap bar vs control soap bar without germicide", "value": 0.30},
      {"measurement": "Odour Reduction Value", "setting": "[1]; 2.0 wt % germicide in soap bar vs control soap bar without germicide", "value": 0.37},
      {"measurement": "maximum reduction in odour intensity obtainable (odour reduction value)", "setting": "[1]; germicide alone in soap bar, irrespective of the amount of germicide", "value": "≤ 0.4"}
    ]},
    {"molecule": "O=C(Cc1ccccc1)OCCc1ccccc1", "note": "[Phenylethyl phenylacetate]", "values": [
      {"measurement": "inhibition at 0.5 % strength", "setting": "[2]; read-out: LIC (lipoxidase-inhibiting capacity, % inhibition)", "value": 0, "unit": "%"},
      {"measurement": "RVR (Raoult variance ratio)", "setting": "[3]", "value": 1.22}
    ]},
    {"molecule": "Dimyrcetol", "values": [
      {"measurement": "LIC (lipoxidase-inhibiting capacity, % inhibition)", "setting": "[2]", "value": 14, "unit": "%"}
    ]},
    {"molecule": "Tetrahydromuguol", "values": [
      {"measurement": "LIC (lipoxidase-inhibiting capacity, % inhibition)", "setting": "[2]", "value": 24, "unit": "%"}
    ]},
    {"molecule": "i-Nonyl acetate", "values": [
      {"measurement": "LIC (lipoxidase-inhibiting capacity, % inhibition)", "setting": "[2]", "value": 50, "unit": "%"}
    ]},
    {"molecule": "i-Nonyl formate", "values": [
      {"measurement": "LIC (lipoxidase-inhibiting capacity, % inhibition)", "setting": "[2]", "value": 19, "unit": "%"}
    ]}
  ]
}
